# Laboratory results published in patent US20260317314A1, “NITROGEN-CONTAINING HETEROCYCLIC COMPOUND AND USE THEREOF” (JIANGSU DEYUAN PHARMACEUTICAL CO.,LTD., priority 2023, published 2026).
# Key:
# plasma protein [1] = experiment: Plasma protein binding rate test, SD rat (equilibrium dialysis); format: in vitro ADME; conditions: 37° C., 4 hours
# From the text: (§1) The sample was thoroughly mixed.
# [2] = In vivo pharmacokinetics study in rats; parameters: species or system SD rat; conditions: male SD rats, oral 2 mg/kg
# plasma protein [3] = experiment: Plasma protein binding rate test, cynomolgus monkey (equilibrium dialysis); format: in vitro ADME; conditions: 37° C., 4 hours
# From the text: as §1
# [4] = In vivo pharmacokinetic study in cynomolgus monkeys; parameters: species or system cynomolgus monkey; conditions: male cynomolgus monkeys
# plasma protein [5] = experiment: Plasma protein binding rate test, human (equilibrium dialysis); format: in vitro ADME; conditions: 37° C., 4 hours
# From the text: as §1
# [6] = Plasma protein binding rate test, SD rat (equilibrium dialysis); format: in vitro ADME; conditions: 37° C., read-out: Plasma protein binding rate (%) in SD rats (converted)
# From the text: as §1
# [7] = In vitro liver microsome metabolic stability study; format: in vitro ADME; conditions: human liver microsomes 0.5 mg/mL, compound 1 μM, 37° C., up to 60 minutes
# Experimental: Stock solution: 10 mM in DMSO.
# Only 54 μL of microsomal working solution, 6 μL of NADPH regeneration system working solution, and 180 μL of stop solution were added to the blank plate.
# LC-MS/MS analysis was performed.
# MDR1-MDCKII cells = experiment: Permeability test in MDR1-MDCKII monolayer cell model; format: in vitro ADME; conditions: 2 μM, pH 7.40, 2.5 hours, 37±1° C.
# Experimental: Experimental objective: The permeability and efflux ratio of the compound of the present disclosure were determined using the MDR1-MDCKII monolayer cell model to assess its membrane permeability and potential for P-gp-mediated efflux transport.
# Experimental protocol: MDR1-MDCKII cells (obtained from the Netherlands Cancer Institute) were seeded in 96-well plates (obtained from Corning) at a cell density of 3.33×10^5 cells/mL and cultured for 4 to 7 days to form confluent cell monolayers. Hank's balanced salt solution containing 10 mM HEPES (pH 7.40) was used as the transport buffer. The test compound was evaluated for bidirectional transport at a concentration of 2 μM, with the DMSO concentration in the incubation system maintained below 1%. After adding the samples, the cell plate was incubated at 37±1° C., 5% CO2, and saturated humidity for 2.5 hours. All samples were quantitatively analyzed using the LC-MS/MS method. The apparent permeability coefficient (Papp, cm/s) and efflux ratio (ER) were calculated using the following formula. Apparent permeability coefficient (Papp, cm/s) was calculated using the following formula: Papp=(dCr/dt)×Vr/(A×C0). Herein, dCr/dt represents the cumulative concentration of the compound at the receiving end per unit time (μM/s); Vr is the volume of the solution at the receiving end (with solution volumes at the apical and basolateral ends being 0.075 mL and 0.250 mL, respectively); A is the relative surface area of the cell monolayer (0.143 cm^2); C0 is the initial concentration of the test substance at the dosing end (μM) or the peak area ratio of the reference substance. The efflux ratio was calculated using the following formula: ER=Papp(BA)/Papp(AB).
# human CYP11B2 = target: T1, human CYP11B2 (Homo sapiens, UniProt P19099); experiment: In vitro activity assay of monoclonal cells overexpressing human CYP11B2; format: cell-based; conditions: G402 cells overexpressing human CYP11B2; substrate 11-deoxycorticosterone; 16 hours; aldosterone by LCMS/MS
# T1 construct: expressed in transfected cells; host or cells: human renal leiomyoma G402 cell line (monoclonal cells overexpressing human CYP11B2)
# T1 sequence (P19099 25-503): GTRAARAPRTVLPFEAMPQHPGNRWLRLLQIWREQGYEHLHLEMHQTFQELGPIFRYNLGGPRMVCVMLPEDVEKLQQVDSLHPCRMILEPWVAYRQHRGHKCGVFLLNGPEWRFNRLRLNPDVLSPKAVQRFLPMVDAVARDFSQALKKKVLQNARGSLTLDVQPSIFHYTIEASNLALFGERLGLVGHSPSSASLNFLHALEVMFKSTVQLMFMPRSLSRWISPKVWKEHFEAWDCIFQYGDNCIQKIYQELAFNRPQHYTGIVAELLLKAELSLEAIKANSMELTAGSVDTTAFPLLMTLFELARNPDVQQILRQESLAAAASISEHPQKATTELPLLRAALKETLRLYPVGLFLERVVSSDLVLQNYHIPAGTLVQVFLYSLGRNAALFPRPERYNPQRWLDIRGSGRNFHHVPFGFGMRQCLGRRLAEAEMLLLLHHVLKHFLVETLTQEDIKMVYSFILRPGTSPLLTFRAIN
# Experimental: The human renal leiomyoma G402 cell line overexpressing human CYP11B2 was selected to serve as a compound activity screening system.
# • 2) Compound details: The test compound was prepared as a 10 μM working concentration using DMSO.
# Day 1: Cells were digested, and human renal leiomyoma G402 cells overexpressing human CYP11B2 were resuspended to 1×10^5 cells/mL, with 100 μL seeded into a 96-well plate.
# Day 2: The medium was replaced with DMEM/F12 containing 2.5% charcoal-stripped fetal bovine serum; test compounds were added: 5 μL of test compound was added to the cell culture medium to achieve final concentrations of 10000, 2500, 625, 156.25, 39.06, 9.77, 2.44, 0.61, 0.15, and 0 nM (with a DMSO content of 0.1%).
# After one hour, the substrate was added: 30 mM 11-deoxycorticosterone was diluted 1500-fold with culture medium, and 5 μL was dispensed per well to achieve a final concentration of […], followed by incubation for 16 hours.
# (§2) Day 3: The cell supernatant was collected and added to 200 μL of a methanol solution containing internal standards (internal standards: 35 ng/mL ketoprofen or 7.5 ng/mL carbamazepine or 5 ng/mL diphenhydramine or 10 ng/mL tolbutamide). The mixture was vortexed and centrifuged (4000×g, 4° C., 5 minutes). Then, 100 μL of the supernatant was taken and mixed with 100 μL of pure water. The mixture was centrifuged (4000 g, 4° C., 15 min), and the supernatant was analyzed by ESI-LCMS/MS. • 4) Data analysis:
# Ratio=Aldosterone peak area/Internal standard peak area
# Control activity %=(Ratio test compound/Ratio DMSO)×100%
# “Ratio test compound” represents the Ratio values at different concentrations of the test compound.
# “Ratio DMSO” represents the Ratio value without the addition of the test compound. • X=Log (compound concentration) • Y=Control activity %
# (§3) The IC50 of the test compound was determined by fitting to a nonlinear regression equation using XLfit 5.5.0.
# human CYP11B1 = target: T2, human CYP11B1 (Homo sapiens, UniProt P15538); experiment: In vitro activity assay of monoclonal cells overexpressing human CYP11B1; format: cell-based; conditions: G402 cells overexpressing human CYP11B1; substrate 11-deoxycortisol 1 μM; 16 hours
# T2 construct: expressed in transfected cells; host or cells: human renal leiomyoma G402 cell line (monoclonal cells overexpressing human CYP11B1)
# T2 sequence (P15538 25-503): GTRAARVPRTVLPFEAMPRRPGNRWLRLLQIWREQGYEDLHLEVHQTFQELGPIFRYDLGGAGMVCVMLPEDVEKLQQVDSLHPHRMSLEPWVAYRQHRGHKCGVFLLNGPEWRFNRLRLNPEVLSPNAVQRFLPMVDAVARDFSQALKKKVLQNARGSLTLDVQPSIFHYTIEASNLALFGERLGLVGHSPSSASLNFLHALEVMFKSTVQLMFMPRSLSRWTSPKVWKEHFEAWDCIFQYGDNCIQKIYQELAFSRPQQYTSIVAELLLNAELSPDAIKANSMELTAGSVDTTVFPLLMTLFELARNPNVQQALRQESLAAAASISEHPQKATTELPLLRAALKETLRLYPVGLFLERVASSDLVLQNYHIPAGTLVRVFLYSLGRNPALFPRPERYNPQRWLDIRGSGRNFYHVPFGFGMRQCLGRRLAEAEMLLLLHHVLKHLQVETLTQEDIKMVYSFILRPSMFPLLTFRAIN
# Experimental: The human renal leiomyoma G402 cell line overexpressing human CYP11B1 was selected to serve as a compound selectivity screening system. Details are as follows: • 1) The cells, reagents, and instrument information were consistent with Experimental Example 1 (activity of monoclonal cells overexpressing human CYP11B2). • 2) Compound details: The test compound was prepared as a […] working concentration using DMSO. • 3) Experimental procedure
# Day 1: Cells were digested, and human renal leiomyoma G402 cells overexpressing CYP11B1 were resuspended to 1×10^5 cells/mL, with […] seeded into a 96-well plate.
# Day 2: The medium was replaced with DMEM/F12 containing 2.5% charcoal-stripped fetal bovine serum.
# After one hour, the substrate was added: 30 mM 11-deoxycortisol was diluted 1500-fold with culture medium, and 5 μL was dispensed per well to achieve a final concentration of 1 μM, followed by incubation for 16 hours.
# as §2, with “The mixture was vortexed and centrifuged (4000×g, 4° C., 5 minutes). Then, 100 μL of the supernatant was taken and mixed with 100 μL of pure water.” left out, “analysis: […]” for “analysis:”
# as §3
Plasma protein binding rate (%) in cynomolgus monkeys (plasma protein [3]) [%],T1/2 ([4]; oral 1 mg/kg) [h],"AUC0-24 h ([4]; oral 1 mg/kg, plasma) [µM·h]",Human plasma protein binding rate (%) (plasma protein [5]),Apparent permeability coefficient (Papp (AB)) (MDR1-MDCKII cells),Compound,Plasma protein binding rate (%) in SD rats (plasma protein [1]) [%],other results
78.1,5.30,7.292,82.7,–,"CCC(=O)N[C@@H]1CCCc2c(-c3cc4c(s3)N(C)C(=O)CC4)cncc21 (single isomer, unassigned) [Compound 017]",94.9,T1/2 [2]: 1.34 h; AUC0-24 h ([2]; plasma): 8.129 µM·h
79.5,5.35,7.586,80.9,24.6 10^-6 cm/s,"CCC(=O)N[C@@H]1CCCc2c(-c3cc(F)c4c(ccc(=O)n4C)c3)cncc21 (single isomer, unassigned) [Compound 018]",–,fraction unbound at 4 h [6]: 0.08; Intrinsic hepatic clearance CLint(liver) [7]: <0.516 L/h/kg
–,–,–,–,–,"CCC(=O)N[C@@H]1CCCc2c(-c3cnc4c(ccc(=O)n4C)c3)cncc21 (single isomer, unassigned) [Compound 022]",–,IC50 (human CYP11B2): 0.0487 µM; IC50 (human CYP11B1): 6.89 µM
66.4,–,–,70.5,11.0 10^-6 cm/s,"CCC(=O)N[C@H]1CCOc2c(-c3ccc4c(ccc(=O)n4C)c3)cncc21 (single isomer, unassigned) [Compound 044]",–,–

Compound,Plasma protein binding rate (%) in cynomolgus monkeys (plasma protein [3]) [%],T1/2 ([4]; oral 1 mg/kg) [h],"AUC0-24 h ([4]; oral 1 mg/kg, plasma) [µM·h]",Human plasma protein binding rate (%) (plasma protein [5]),Apparent permeability coefficient (Papp (AB)) (MDR1-MDCKII cells),Plasma protein binding rate (%) in SD rats (plasma protein [1]) [%],other results
"CCC(=O)NC1CCCc2c(-c3cc4ccc(=O)n(C)c4cc3F)cncc21 (single isomer, unassigned) [Compound 019]",75.2,–,–,76.2,–,87.1,"F ([4]; oral 3 mg/kg): 113%; T1/2 ([4]; oral 3 mg/kg): 4.65 h; AUC0-24 h ([4]; oral 3 mg/kg, plasma): 23.864 µM·h; Cmax ([4]; oral 3 mg/kg, plasma): 3.79 µM"
